Measurements from US20200163984A1, “USE OF ISOVALERYL SPIRAMYCIN I, II AND/OR III IN MANUFACTURING MEDICAMENT FOR TREATING AND/OR PREVENTING TUMOR, AND MEDICAMENT” (SHENYANG FUYANG PHARMACEUTICAL TECHNOLOGY CO., LTD., priority 2017, published 2020).
≈ marks a conversion by molar mass, not a printed value.

Columns and labels:
[1] = tested on: human renal cell adenocarcinoma cell 769-P; settings: MTT, 48 hours
Protocol: The purpose of the assay is to evaluate the in vitro cell proliferation inhibition or cytotoxic activity of a tested sample.
MCF-7, MDA-MB-231, HepG2, A549, H460, H1299, 786-0, 769-P, U251, A172, HeLa, PC3, PANC-1, TE-1, SGC7901, and HT-29 were adherent tumor cells. The adherent tumor cells in the logarithmic growth phase were selected and digested with trypsin, then were prepared into a 4 to 5×10^4/ml cell suspension by a medium containing 10% fetal bovine serum. And the cell suspension was inoculated in a 96-well culture plate, and each well was 100 μL. The 96-well culture plate was cultured at 37° C. and 5% CO2 for 24 hours. The experimental group was replaced with a new culture medium containing different concentrations of the sample to be tested, namely, isovaleryl spiramycin I, isovaleryl spiramycin II, or isovaleryl spiramycin III, while the control group was replaced with a culture medium containing the same volume of solvent. Each group was set up with 3 parallel wells that were cultured at 37° C. and 5% CO2 for 48 hours. After the supernatant was removed, the wells were washed carefully for 3 times with PBS. And 100 μL of freshly prepared culture medium containing 0.5 mg/ml MTT was added to each well for continuous incubation for 4 hours at 37° C. After the supernatant was removed carefully, 150 μL of DMSO was added to each well, and after the material was mixed for 10 minutes with a micro-oscillator, the optical density value was measured at 492 nm with a microplate reader.
The inhibition rate of the medicament on tumor cell growth is calculated according to the following formula:
Tumor cell growth inhibition rate (%)=[A492 (negative control)−A492 (dosing group)]/A492 (negative control)×100%
And the half-inhibitory concentration (IC50) of the sample is determined therefrom.

[2] = tested on: transplanted tumor of HL60 cells; assay: HL-60 transplanted tumor in nude mice
Protocol: HL-60 cells in a logarithmic growth phase were taken and subjected to a trypan blue exclusion experiment showing that the cell viability was more than 95%, then the cells were subjected to trypsinization, centrifugation, and supernatant removal. Then cell concentration was adjusted to 1×10^7/ml with matrigel, then each nude mouse was inoculated subcutaneously with 0.2 ml of cells at its right armpit and recorded as the first day of inoculation. When the tumor grows to be greater than or equal to 100 mm^3, the mice were randomly divided into 11 groups with 6 mice in each group: isovaleryl spiramycin I groups with doses of 25, 50 and 100 mg/kg, isovaleryl spiramycin II groups with doses of 25, 50 and 100 mg/kg, and isovaleryl spiramycin III groups with doses of 25, 50 and 100 mg/kg. Each group was continuously administered intragastrically for 30 days with a dose of 20 ml/kg. The mice were sacrificed the next day after drug withdrawal and the indicators were tested. The long diameter and short diameter of the tumor, and the weight of each mouse were recorded every 3 days from drug administration to nude mouse sacrifice.
The body weight of the nude mice and the long diameter (a) and short diameter (b) of the transplanted tumor were measured every 3 days, and the tumor volume (v), relative tumor volume (RTV) and relative tumor proliferation rate (T/C) are calculated respectively according to the following formulas, wherein V=a×b^2/2; RTV=V/V0 (V0 is the tumor volume before administration, V is the tumor volume before sacrifice), and T/C (%)=treatment group RTV/model control group RTV×100%.
Each mouse was weighed and sacrificed. After the tumor was completely stripped off from the body of the mouse, the non-tumor tissues such as blood stains and fat were removed to weigh the tumor and calculate the tumor growth inhibition rate. The average tumor weight of each group of mice is used as an indicator of efficacy. Tumor growth inhibition rate (%)=(1−the average tumor weight of the treatment group/the average tumor weight of the model group)×100%.

[3] = tested on: transplanted tumor of mouse Lewis lung cancer; assay: Transplanted tumor of mouse Lewis lung cancer; settings: for Tumor Volume (mm3) (d 1) / Tumor Volume (mm3) (d30) / Relative Tumor Proliferation Rate (T/C) / Relative Tumor Volume (RTV): title prints KM mouse H22 cells; for Tumor Volume (mm3) (d30): d 30
Protocol: Lewis lung cancer cells were cultured in a RPMI 1640 culture medium containing 10% fetal bovine serum at 37° C. in a 5% CO2 incubator. The cells in the logarithmic growth phase were subjected to trypsinization with 0.25% trypsin, then the cells were collected to be centrifugated to remove the obtained supernatant, then were washed twice with sterile normal saline. […] The Lewis cells were adjusted to 1×10^7/mL in concentration and stored in ice water. 75% ethanol was used to disinfect the skin under the right armpits of the mice, and each C57BL/6 mouse was soon inoculated subcutaneously with 0.2 ml of the cells at its right armpit.
In the Lewis lung cancer model, the mice inoculated with the tumor were randomly divided into groups with 10 mice in each group the next day of inoculation. The groups included: a model control group, a positive drug cyclophosphamide control group (CTX, 30 mg/kg), isovaleryl spiramycin I groups with doses of 13, 26 and 52 mg/kg; isovaleryl spiramycin II groups with doses of 13, 26 and 52 mg/kg; isovaleryl spiramycin III groups with doses of 13, 26 and 52 mg/kg. Each group was continuously administered intragastrically for 15 days with a dose of 20 ml/kg.
The tumor-bearing mice were weighed and sacrificed the next day after the last administration. The subcutaneous tumors were dissected and weighed. The average tumor weight of each group is calculated, and the tumor inhibition rate is calculated.
Tumor inhibition rate=(1−T/C)×100%
T: average tumor weight of the drug-administered group; C: average tumor weight of the blank control group.

[4] = HL-60, high dose (100 mg/kg in method) i.g. 30 days
[5] = HL-60, low dose (25 mg/kg in method) i.g. 30 days
[6] = HL-60, medium dose (50 mg/kg in method) i.g. 30 days

## CCC(=O)O[C@@H]1CC(=O)O[C@H](C)C/C=C/C=C/[C@H](O[C@H]2CC[C@H](N(C)C)[C@@H](C)O2)[C@H](C)C[C@H](CC=O)[C@H](O[C@@H]2O[C@H](C)[C@@H](O[C@H]3C[C@@](C)(O)[C@@H](OC(=O)CC(C)C)[C@H](C)O3)[C@H](N(C)C)[C@H]2O)[C@H]1OC [Isovaleryl spiramycin III, isovaleryl spiramycin III]
[1]
  IC50: 10.75 ± 0.56 µg/mL (≈ 10.9 µM)
[2]; [4]
  Relative Tumor Proliferation Rate (T/C): 39.87%
  tumor growth inhibition rate: 55.05%
[2]; [5]
  Relative Tumor Proliferation Rate (T/C): 76.09%
  tumor growth inhibition rate: 17.10%
[2]; HL-60, low, medium and high doses, P<0.05
  tumor volume and relative tumor volume compared with the model group: significantly lower
[2]; [6]
  Relative Tumor Proliferation Rate (T/C): 61.90%
  tumor growth inhibition rate: 29.92%
[2]; dose 25 mg/kg
  Inhibition Rate (%): 17.10%
  Relative Tumor Proliferation Rate (T/C): 76.09%
  Relative Tumor Volume (RTV): 8.56 ± 1.82
  Tumor Weight: 1.88 ± 0.25 g
[2]; dose 25 mg/kg, d 1
  Tumor Volume (mm3) (d 1): 184.12 ± 22.53 mm3
[2]; dose 25 mg/kg, d 30
  Tumor Volume (mm3) (d30): 1543.27 ± 190.73 mm3
[2]; dose 50 mg/kg
  Inhibition Rate (%): 29.92%
  Relative Tumor Proliferation Rate (T/C): 61.90%
  Relative Tumor Volume (RTV): 6.96 ± 2.25
  Tumor Weight: 1.59 ± 0.45 g
[2]; dose 50 mg/kg, d 1
  Tumor Volume (mm3) (d 1): 189.31 ± 24.59 mm3
[2]; dose 50 mg/kg, d 30
  Tumor Volume (mm3) (d30): 1308.87 ± 436.30 mm3
[2]; dose 100 mg/kg
  Inhibition Rate (%): 55.05%
  Relative Tumor Proliferation Rate (T/C): 39.87%
  Relative Tumor Volume (RTV): 4.48 ± 2.94
  Tumor Weight: 1.01 ± 0.41 g
[2]; dose 100 mg/kg, d 1
  Tumor Volume (mm3) (d 1): 188.01 ± 27.66 mm3
[2]; dose 100 mg/kg, d 30
  Tumor Volume (mm3) (d30): 789.65 ± 404.78 mm3
[2]; mouse, in vivo
  mouse weight compared with the model group: no significant changes
[2]; mouse, in vivo, 25 mg/kg
  Body Weight (g) (d1): 20.60 ± 1.57 g
  Body Weight (g) (d30): 20.67 ± 1.51 g
[2]; mouse, in vivo, 50 mg/kg
  Body Weight (g) (d1): 20.82 ± 1.42 g
  Body Weight (g) (d30): 20.59 ± 1.36 g
[2]; mouse, in vivo, 100 mg/kg
  Body Weight (g) (d1): 20.2l ± l .87 g
  Body Weight (g) (d30): 20.25 ± 1.22 g
[3]; 13, 26 and 52 mg/kg i.g. 15 days
  growth of Lewis lung cancer in mice: significantly inhibit
[3]; dose 12.5 mg/kg, d 1
  Tumor Volume (mm3) (d 1): 105.02 ± 31.31 mm3
[3]; dose 12.5 mg/kg
  Tumor Volume (mm3) (d30): 1270.87 ± 198.05 mm3
  Relative Tumor Proliferation Rate (T/C): 84.57
  Relative Tumor Volume (RTV): 13.54 ± 6.73
[3]; dose 13 mg/kg
  Inhibition Rate (%): 35.46%
  Tumor Weight: 1.03 ± 0.18 g
[3]; dose 25 mg/kg, d 1
  Tumor Volume (mm3) (d 1): 103.29 ± 29.09 mm3
[3]; dose 25 mg/kg
  Tumor Volume (mm3) (d30): 841.92 ± 385.16 mm3
  Relative Tumor Proliferation Rate (T/C): 58.38
  Relative Tumor Volume (RTV): 9.35 ± 5.89
[3]; dose 26 mg/kg
  Inhibition Rate (%): 48.96%
  Tumor Weight: 0.82 ± 0.34 g
[3]; dose 50 mg/kg, d 1
  Tumor Volume (mm3) (d 1): 104.43 ± 23.09 mm3
[3]; dose 50 mg/kg
  Tumor Volume (mm3) (d30): 677.35 ± 237.77 mm3
  Relative Tumor Proliferation Rate (T/C): 41.81
  Relative Tumor Volume (RTV): 6.69 ± 2.56
[3]; dose 52 mg/kg
  Inhibition Rate (%): 57.54%
  Tumor Weight: 0.68 ± 0.18 g
[3]; mouse, in vivo, 13 mg/kg
  Body Weight (g) (d1): 19.62 ± 1.30 g
  Body Weight (g) (d 15): 22.52 ± 0.57 g
[3]; mouse, in vivo, 26 mg/kg
  Body Weight (g) (d1): 19.58 ± 0.63 g
  Body Weight (g) (d 15): 22.28 ± 0.66 g
[3]; mouse, in vivo, 52 mg/kg
  Body Weight (g) (d1): 20.00 ± 0.60 g
  Body Weight (g) (d 15): 22.42 ± 1.66 g

## O=P1(N(CCCl)CCCl)NCCCO1 (stereo not drawn) [Cyclophosphamide, cyclophosphamide, reference compound]
[2]; dose 30 mg/kg
  Inhibition Rate (%): 70.30%
  Relative Tumor Proliferation Rate (T/C): 24.69%
  Relative Tumor Volume (RTV): 2.78 ± 1.89
  Tumor Weight: 0.67 ± 0.30 g
[2]; dose 30 mg/kg, d 1
  Body Weight (g) (d1): 20.65 ± 1.47 g
  Tumor Volume (mm3) (d 1): 180.63 ± 29.97 mm3
[2]; dose 30 mg/kg, d 30
  Body Weight (g) (d30): 18.47 ± 0.91 g
  Tumor Volume (mm3) (d30): 466.98 ± 255.88 mm3
[3]; dose 30 mg/kg
  Inhibition Rate (%): 76.43%
  Tumor Weight: 0.38 ± 0.07 g
  Tumor Volume (mm3) (d30): 371.39 ± 112.68 mm3
  Relative Tumor Proliferation Rate (T/C): 24.55
  Relative Tumor Volume (RTV): 3.93 ± 1.86
[3]; dose 30 mg/kg, d 1
  Body Weight (g) (d1): 19.62 ± 1.01 g
  Tumor Volume (mm3) (d 1): 104.35 ± 30.89 mm3
[3]; dose 30 mg/kg, d 15
  Body Weight (g) (d 15): 21.38 ± 0.67 g
[3]; mouse Lewis lung cancer, CTX 30 mg/kg i.g. 15 days
  tumor inhibition rate: 76.43%
